SMILES strings stand for the structures. Where two headings read alike, the source gives them in different places.

The term IC50 denotes the concentration that inhibits the measured activity by half.

In one data set the test system is HCMV. The experiment in a line: CMV plaque reduction assay in Hs68 cells. It is filed as cell-based, human cytomegalovirus. The following applies: 8 days, read-out: HCMV-1 IC50. Here is the method: In 12-well tissue culture dishes, 1.5×10E5 or Hs68 cells (human […] fibroblast cell line) were plated per well with 2 ml of DMEM 10% fetal bovine serum and incubated in 5% CO2/air at 37° C. overnight or until cells were ready. The medium was then removed and the cells inoculated with 0.5 ml (containing 200 pfu/ml diluted in DMEM 2% FBS) of HCMV virus in each well. After adsorption at 37° C. for 2 hours, the virus was removed and cell monolayers were overlaid (1 ml) with DMEM 2% FBS containing test compounds at various concentrations. The cells were then incubated at 37° C. for 8 days, and then fixed with one volume (1 ml) of formaldehyde 8%/water or PBS 1× for 30 minutes. The formaldehyde solution was removed and the cell monolayers were stained with crystal violet 2%/EtOH 20% for a few seconds and then rinsed with water. Monolayers were examined for the presence of plaques under a microscope, the percentage of plaque reduction determined for each compound by comparison with the untreated cells (no test compound) and the 50% inhibitory concentration (IC50) established. DHPG was used as a positive control. Note: DMEM medium contained 1% glutamine and 1% pen/strep
(Plaques are areas of infected cells; plaque reduction assays count them against a control.)

A further data set relates to Vero34 cells. Type of data set: cell-based. The following applies: African green monkey, 48 h. Here is the method:
The CD50 value (cytotoxic dose at 50%) was assessed on virus-free control layers of cells to assess the toxicity of the compounds.
Flat bottom 96 well plates were plated with 5×1OE3 Vero-34 cells/well and 1×10E4 Hs-68 or Wi-38 cells/well respectively and incubated overnight at 37° C. and 5% CO2/air. After incubation, the supernatant medium was removed and replaced with test compound dilutions in 2% DMEM (150 ul). The cells were then incubated 48 hours in a 5% CO2 incubator at 37° C.
50 μl/well of 10 uCi/ml solution of [3H]-methyl thymidine (specific activity of approx. 2 Ci/mmol) was added to the culture medium and incubated overnight (18 hours) in a 5% CO2 incubator at 37° C.
Cells were then collected onto a fiberglass filter (Printed Filtermat A 1450-421 Wallac) with a Tomtec cell harvester. Suspended cells were collected directly onto filter while for adherent cells, the medium was first removed, then the cells washed with PBS and trypsinized for 2-3 minutes (50 μl trypsin/well) before collecting.
Filters were dried for 1 hour at 37-40° C. and then placed into bags (1450-microbeta #1450-432 Wallac) with 4.5 ml of Betascint and counts obtained with Microbeta 1450 Wallac (protocol 1).
(§1) The percent of cell proliferation was determined by comparison to the control (no test compound) and thereby establishing 50% inhibitory concentration is established.

The test system of a further data set is Hs68 cells. As to the kind of experiment: Toxicity (CD50) reported with the CMV assay. It is filed as cell-based, human. As to conditions: reported with HCMV assay. Here is the method:
Cells were then collected onto a fiberglass filter (Printed Filtermat A 1450-421 Wallac) with a Tomtec cell harvester.
as §1

A further data set relates to HSV-1. The experiment in a line: Herpes simplex virus plaque reduction assay in Vero34 cells. It is filed as cell-based. As to conditions: Human alphaherpesvirus 1, 72 h, 3 days. On the procedure:
In 12 wells tissue culture dishes, 2×10^5 Vero34 cells were seeded in 2 mls of DMEM supplemented with 10% […]. The plate was incubated in 5% CO2/air at 37° C. overnight. The medium was removed and cells were inoculated with 200 PFU of HSV-1 diluted in a final volume of 0.5 ml DMEM supplemented with 2% FES. After adsorption at 37° C. for 1 hour, the viruses were removed and the cell monolayers were overlaid with 1 ml of DMEM-2% FES containing the test compound at final concentrations of 0.1, 1.0, 10, and 50 ug/ml. Acyclovir was used as a positive control. Uninfected and infected untreated monolayers were also included in the assay as controls. All compounds were tested in duplicates. After an incubation at 37° C. in 5% CO2/air for 3 days, cells were fixed with the addition of one volume of formaldehyde 8%/water for 30 min. The formaldehyde/medium was removed and the monolayers were stained with crystal violet 2%/ethanol 20% for few sec. The cells were rinsed with tap water and the monolayers were examined for the presence of plaques under a microscope.

The next data set relates to RSV and CMV viruses. As to the kind of experiment: Case report: immune suppressed leukemia patient with RSV and CMV pneumonias in troxacitabine phase I study. As to conditions: one elderly patient with relapsed resistant acute myeloid leukemia, also treated for RSV and CMV infections. Type of data set: in vivo, human. On the procedure:
An elderly patient with relapsed resistant acute myeloid leukemia was entered in a troxacitabine (compound #1) as phase I Leukemia study. In the early part of the therapy, the patient, known to be immune suppressed, developed severe pneumonias. […] The patient to was maintained in the troxacitabine study and was treated for RSV and CMV viral infections.

Regarding `Nc1nc2c(ncn2COC(CO)CO)c(=O)[nH]1` [DHPG, reference compound], in the data set with HCMV, the IC50 amounted to 9.8 µM.

Turning to `Nc1ccn([C@@H]2CO[C@H](CO)O2)c(=O)n1` [COMPOUND #1, (−)-cis-2-Hydroxymethyl-4-(cytosin-1′-yl)-1,3-dioxolane], the “toxicity CD50” value with Vero34 cells and in the data set with Hs68 cells was >50 µM in each case. Moreover, the IC50 in the data set with HCMV (Human betaherpesvirus 5, 192 h) was determined as 0.7 µM; in the data set on HSV-1 it was 1.7 µM. In the data set on RSV and CMV viruses, the “Clinical outcome of viral pneumonias (RSV and CMV)” value was “did recover from their pneumonias”.

As to `Nc1nc2c(ncn2COCCO)c(=O)[nH]1` [ACYCLOVIR, reference compound], in the data set with Vero34 cells, the “toxicity CD50” value is >13.3 µM. The IC50 in the data set with HSV-1 stood at 13.3 µM.

In turn, `Nc1ncn([C@@H]2CO[C@H](CO)O2)c(=O)n1` [COMPOUND #3, (−)cis-2-Hydroxymethyl-4-(5′-azacytosin-1′-yl)-1,3-Dioxolane] gave an IC50 with HSV-1 of 47 to 234 µM.

These data come from patent publication US6583149B1, “Method for the treatment or prevention of viral infection using nucleoside analogues” (BioChem Pharma Inc., priority 1999, dated 2003).
